Source: patent US10221161B2, “Inhibitors of plasma kallikrein” (Kalvista Pharmaceuticals Limited, priority 2013, dated 2019)

Legend:
Human plasma kallikrein = Human plasma kallikrein (Homo sapiens (Human), UniProt P03952); test: Determination of the IC50 for plasma kallikrein (fluorogenic substrate H-DPro-Phe-Arg-AFC); format: biochemical; conditions: 37° C., read-out: IC50 (human PKal)
Experimental: Determination of the IC50 Plasma Kallikrein Plasma kallikrein inhibitory activity in vitro was determined using standard published methods (see e.g. Johansen et al., Int. J. Tiss. […] Shori et al., Biochem. Pharmacol., 1992, 43, 1209; Stürzebecher et al., Biol. Chem. Hoppe-Seyler, 1992, 373, 1025). Human plasma kallikrein (Protogen) was incubated at 37° C. with the fluorogenic substrate […] and various concentrations of the test compound.

Human KLK1 = Human KLK1 (Homo sapiens (Human), UniProt P06870); test: Determination of the IC50 for KLK1 (fluorogenic substrate H-DVal-Leu-Arg-AFC); format: biochemical; conditions: human KLK1, 37° C.
Chain of Human KLK1 (P06870 25-262): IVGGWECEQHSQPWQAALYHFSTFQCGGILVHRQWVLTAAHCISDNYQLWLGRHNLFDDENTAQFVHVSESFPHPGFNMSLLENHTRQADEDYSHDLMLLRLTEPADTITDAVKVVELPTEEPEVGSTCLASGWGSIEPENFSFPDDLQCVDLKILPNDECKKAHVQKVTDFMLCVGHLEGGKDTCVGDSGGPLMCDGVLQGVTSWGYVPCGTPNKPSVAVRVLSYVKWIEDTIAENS
Experimental: Selected compounds were further screened for inhibitory activity against the related enzyme KLK1. The ability of the compounds of formula (I) to inhibit KLK1 may be determined using the following biological assay:
Determination of the IC50 for KLK1
KLK1 inhibitory activity in vitro was determined using standard published methods (see e.g. Johansen et al., Int. J. Tiss. Reac. 1986, 8, 185; Shori et al., Biochem. Pharmacol., 1992, 43, 1209; Stürzebecher et al., Biol. Chem. Hoppe-Seyler, 1992, 373, 1025). Human KLK1 (Callbiochem) was incubated at 37° C. with the fluorogenic substrate H-DVal-Leu-Arg-AFC and various concentrations of the test compound. Residual enzyme activity (initial rate of reaction) was determined by measuring the change in optical absorbance at 410 nm and the IC50 value for the test compound was determined.

Chain of Human plasma kallikrein (P03952 391-638 limits assumed): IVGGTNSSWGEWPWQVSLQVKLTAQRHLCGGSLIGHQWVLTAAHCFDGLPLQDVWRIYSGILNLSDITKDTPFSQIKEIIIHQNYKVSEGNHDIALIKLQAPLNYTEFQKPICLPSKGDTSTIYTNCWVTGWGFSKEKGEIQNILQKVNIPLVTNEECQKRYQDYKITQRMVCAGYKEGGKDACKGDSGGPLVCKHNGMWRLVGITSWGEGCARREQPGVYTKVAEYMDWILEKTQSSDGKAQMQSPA
Chain of Human plasma kallikrein (P03952 20-390 partner limits assumed): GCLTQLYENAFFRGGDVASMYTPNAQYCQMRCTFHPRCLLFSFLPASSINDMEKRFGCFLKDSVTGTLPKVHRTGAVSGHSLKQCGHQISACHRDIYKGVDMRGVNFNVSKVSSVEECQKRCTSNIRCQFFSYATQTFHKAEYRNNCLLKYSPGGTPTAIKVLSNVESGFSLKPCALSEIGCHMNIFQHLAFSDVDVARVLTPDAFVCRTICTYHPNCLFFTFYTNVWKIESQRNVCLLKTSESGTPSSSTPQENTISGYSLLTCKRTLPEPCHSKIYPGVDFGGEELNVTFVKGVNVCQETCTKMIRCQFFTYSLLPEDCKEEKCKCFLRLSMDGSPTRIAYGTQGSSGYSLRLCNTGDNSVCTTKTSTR

`Cc1ccc2cc(Cc3cncc(C(=O)NCc4c(C)nc5[nH]ccc(C)c4-5)c3)ccc2n1` [Example 13, N-({2,4-Dimethyl-7H-pyrrolo[2,3-b]pyridin-3-yl}methyl)-5-[(2-methylquinolin-6-yl)methyl]pyridine-3-carboxamide] was tested, and the IC50 (Human plasma kallikrein) was 923 nM and the IC50 (Human KLK1) was 0.236 µM.

`Nc1nccc2cc(CNC(=O)c3cncc(Cc4ccc(N5CCOCC5)nc4)c3)ccc12` [Example 63, N-[(1-Aminoisoquinolin-6-yl)methyl]-5-{[6-(morpholin-4-yl)pyridin-3-yl]methyl}pyridine-3-carboxamide] was tested, and the IC50 (Human plasma kallikrein) was 432 nM and the IC50 (Human KLK1) was > 10 µM.

`CC1CCN(c2ccc(Cc3cncc(C(=O)NCc4ccc5c(N)nccc5c4)c3)cn2)C1` (stereo not shown) [Example 61, N-[(1-Aminoisoquinolin-6-yl)methyl]-5-{[6-(3-methylpyrrolidin-1-yl)pyridin-3-yl]methyl}pyridine-3-carboxamide] showed an IC50 (Human plasma kallikrein) of 137 nM and an IC50 (Human KLK1) of 6.55 µM.

With `Nc1nccc2cc(CNC(=O)c3cncc(CN4CCN(Cc5ccccc5F)CC4)c3)ccc12` [Example 44, N-[(1-Aminoisoquinolin-6-yl)methyl]-5-({4-[(2-fluorophenyl)methyl]piperazin-1-yl}methyl)pyridine-3-carboxamide] the IC50 (Human plasma kallikrein) was 6790 nM and the IC50 (Human KLK1) was 28 µM.

In the case of `Nc1nccc2cc(CNC(=O)c3cncc(Cc4ccnc(N5CCOCC5)c4)c3)ccc12` [Example 85, N-[(1-Aminoisoquinolin-6-yl)methyl]-5-{[2-(morpholin-4-yl)pyridin-4-yl]methyl}pyridine-3-carboxamide], the IC50 (Human plasma kallikrein) is reported as 1670 nM and the IC50 (Human KLK1) is reported as 8.54 µM.

`COc1cccc(CN2CCN(Cc3cncc(C(=O)NCc4ccc5c(N)nccc5c4)c3)CC2)c1` [Example 49, N-[(1-Aminoisoquinolin-6-yl)methyl]-5-({4-[(3-methoxyphenyl)methyl]piperazin-1-yl}methyl)pyridine-3-carboxamide] was tested, and the IC50 (Human plasma kallikrein) was 6990 nM and the IC50 (Human KLK1) was > 10 µM.

`Nc1nccc2cc(CNC(=O)c3cncc(Cc4ccc(-n5cccn5)cc4)c3)ccc12` [Example 27, N-[(1-Aminoisoquinolin-6-yl)methyl]-5-{[4-(pyrazol-1-yl)phenyl]methyl}pyridine-3-carboxamide] showed an IC50 (Human plasma kallikrein) of 1010 nM and an IC50 (Human KLK1) of 12.1 µM.

In the case of `Nc1nccc2cc(CNC(=O)c3cncc(Cc4ccnc(N5CCC(O)C5)c4)c3)ccc12` (stereo not shown) [Example 81, N-[(1-Aminoisoquinolin-6-yl)methyl]-5-{[2-(3-hydroxypyrrolidin-1-yl)pyridin-4-yl]methyl}pyridine-3-carboxamide], the IC50 (Human plasma kallikrein) is reported as 674 nM and the IC50 (Human KLK1) is reported as 9.57 µM.

Work on `CN1CCN(c2ccc(Cc3cncc(C(=O)NCc4ccc5c(N)nccc5c4)c3)cn2)CC1` [Example 64, N-[(1-Aminoisoquinolin-6-yl)methyl]-5-{[6-(4-methylpiperazin-1-yl)pyridin-3-yl]methyl}pyridine-3-carboxamide] yielded an IC50 (Human plasma kallikrein) of 610 nM and an IC50 (Human KLK1) of 5.34 µM.

In the case of `Cc1cnn(Cc2ccc(Cc3cncc(C(=O)NCc4c(C)cc(CN)cc4C)n3)cc2)c1` [Example 95, N-{[4-(Aminomethyl)-2,6-dimethylphenyl]methyl}-6-({4-[(4-methylpyrazol-1-yl)methyl]phenyl}methyl)pyrazine-2-carboxamide], the IC50 (Human plasma kallikrein) is reported as 53.6 nM and the IC50 (Human KLK1) is reported as > 40 µM.

`COc1ncc(Cc2ccc3nc(C)ccc3c2)cc1C(=O)NCc1ccc2c(N)nccc2c1` [Example 19, N-[(1-Aminoisoquinolin-6-yl)methyl]-2-methoxy-5-[(2-methylquinolin-6-yl)methyl]pyridine-3-carboxamide] gave an IC50 (Human plasma kallikrein) of 434 nM and an IC50 (Human KLK1) of 1.21 µM.

In the case of `CN(C)[C@H]1CCN(c2ccc(Cc3cncc(C(=O)NCc4ccc5c(N)nccc5c4)c3)cn2)C1` (stereo in doubt) [Example 68, N-[(1-Aminoisoquinolin-6-yl)methyl]-5-({6-[3-(dimethylamino)pyrrolidin-1-yl]pyridin-3-yl}methyl)pyridine-3-carboxamide], the IC50 (Human plasma kallikrein) is reported as 375 nM and the IC50 (Human KLK1) is reported as 3.51 µM.

Work on `Nc1nccc2cc(CNC(=O)c3cncc(Cc4ccnc(N5CCCCC5)c4)c3)ccc12` [Example 78, N-[(1-Aminoisoquinolin-6-yl)methyl]-5-{[2-(piperidin-1-yl)pyridin-4-yl]methyl}pyridine-3-carboxamide] yielded an IC50 (Human plasma kallikrein) of 164 nM and an IC50 (Human KLK1) of 6.93 µM.

Work on `Nc1nccc2cc(CNC(=O)c3cncc(Cc4ccc5ncccc5c4)c3)ccc12` [Example 31, N-[(1-Aminoisoquinolin-6-yl)methyl]-5-(quinolin-6-ylmethyl)pyridine-3-carboxamide] yielded an IC50 (Human plasma kallikrein) of 144 nM and an IC50 (Human KLK1) of 4.13 µM.

In the case of `Nc1nccc2cc(CNC(=O)c3cncc(Cc4ccc(N5CCCC5=O)nc4)c3)ccc12` [Example 53, N-[(1-Aminoisoquinolin-6-yl)methyl]-5-{[6-(2-oxopyrrolidin-1-yl)pyridin-3-yl]methyl}pyridine-3-carboxamide], the IC50 (Human plasma kallikrein) is reported as 200 nM and the IC50 (Human KLK1) is reported as 3.86 µM.

For `Cc1cnn(Cc2ccc(Cn3cc(C(=O)NCc4ccc5c(N)nccc5c4)ccc3=O)cc2)c1` [Example 15, N-[(1-Aminoisoquinolin-6-yl)methyl]-1-({4-[(4-methylpyrazol-1-yl)methyl]phenyl}methyl)-6-oxopyridine-3-carboxamide], the IC50 (Human plasma kallikrein) was 159 nM and the IC50 (Human KLK1) was 17.6 µM.

Molecule `Cc1cnn(Cc2ccc(Cc3cc(C(=O)NCc4ccc5c(N)nccc5c4)ncn3)cc2)c1` [Example 8, N-[(1-Aminoisoquinolin-6-yl)methyl]-6-({4-[(4-methylpyrazol-1-yl)methyl]phenyl}methyl)pyrimidine-4-carboxamide] has an IC50 (Human plasma kallikrein) of 119 nM and an IC50 (Human KLK1) of 28.2 µM.

For `Cc1cnn(Cc2ccc(Cc3ccnc(C(=O)NCc4ccc5c(N)nccc5c4)c3)cc2)c1` [Example 3, N-[(1-Aminoisoquinolin-6-yl)methyl]-4-({4-[(4-methylpyrazol-1-yl)methyl]phenyl}methyl)pyridine-2-carboxamide], the IC50 (Human plasma kallikrein) was 159 nM and the IC50 (Human KLK1) was > 40 µM.

`Nc1nccc2cc(CNC(=O)c3cncc(Cc4ccc(N5CCCC5CO)nc4)c3)ccc12` (stereo not shown) [Example 67, N-[(1-Aminoisoquinolin-6-yl)methyl]-5-({6-[2-(hydroxymethyl)pyrrolidin-1-yl]pyridin-3-yl}methyl)pyridine-3-carboxamide] showed an IC50 (Human plasma kallikrein) of 73.3 nM and an IC50 (Human KLK1) of 5.15 µM.

Molecule `CCN(CC)c1ccc(Cc2cncc(C(=O)NCc3ccc4c(N)nccc4c3)c2)cn1` [Example 66, N-[(1-Aminoisoquinolin-6-yl)methyl]-5-{[6-(diethylamino)pyridin-3-yl]methyl}pyridine-3-carboxamide] has an IC50 (Human plasma kallikrein) of 52.7 nM and an IC50 (Human KLK1) of 5.85 µM.

`Nc1nccc2cc(CNC(=O)c3cncc(CN4CCN(Cc5cccc(F)c5)CC4)c3)ccc12` [Example 46, N-[(1-Aminoisoquinolin-6-yl)methyl]-5-({4-[(3-fluorophenyl)methl]piperazin-1-yl}methyl)pyridine-3-carboxamide] gave an IC50 (Human plasma kallikrein) of 7510 nM and an IC50 (Human KLK1) of 29.2 µM.

`CC1CCN(c2cc(Cc3cncc(C(=O)NCc4ccc5c(N)nccc5c4)c3)ccn2)C1` (stereo not shown) [Example 83, N-[(1-Aminoisoquinolin-6-yl)methyl]-5-{[2-(3-methylpyrrolidin-1-yl)pyridin-4-yl]methyl}pyridine-3-carboxamide] showed an IC50 (Human plasma kallikrein) of 106 nM and an IC50 (Human KLK1) of 2.87 µM.

Work on `CC1(C)CCCN1c1cc(Cc2cncc(C(=O)NCc3ccc4c(N)nccc4c3)c2)ccn1` [Example 84, N-[(1-Aminoisoquinolin-6-yl)methyl]-5-{[2-(2,2-dimethylpyrrolidin-1-yl)pyridin-4-yl]methyl}pyridine-3-carboxamide] yielded an IC50 (Human plasma kallikrein) of 683 nM and an IC50 (Human KLK1) of 10.7 µM.

For `Cc1cnn(CCOCc2cncc(C(=O)NCc3ccc4c(N)nccc4c3)c2)c1` [Example 40, N-[(1-Aminoisoquinolin-6-yl)methyl]-5-{[2-(4-methylpyrazol-1-yl)ethoxy]methyl}pyridine-3-carboxamide], the IC50 (Human plasma kallikrein) was 127 nM and the IC50 (Human KLK1) was 4.87 µM.

`Nc1nccc2cc(CNC(=O)c3cncc(Cc4ccc(N5CCCCC5)nc4)c3)ccc12` [Example 56, N-[(1-Aminoisoquinolin-6-yl)methyl]-5-{[6-(piperidin-1-yl)pyridin-3-yl]methyl}pyridine-3-carboxamide] was tested, and the IC50 (Human plasma kallikrein) was 313 nM and the IC50 (Human KLK1) was > 40 µM.

With `CC1(C)CCN(c2ccc(Cc3cncc(C(=O)NCc4ccc5c(N)nccc5c4)c3)cn2)C1` [Example 74, N-[(1-Aminoisoquinolin-6-yl)methyl]-5-{[6-(3,3-dimethylpyrrolidin-1-yl)pyridin-3-yl]methyl}pyridine-3-carboxamide] the IC50 (Human plasma kallikrein) was 83.1 nM and the IC50 (Human KLK1) was > 10 µM.

For `Nc1nccc2cc(CNC(=O)c3cncc(CN4CCN(CCc5ccccc5)CC4)c3)ccc12` [Example 51, N-[(1-Aminoisoquinolin-6-yl)methyl]-5-{[4-(2-phenylethyl)piperazin-1-yl]methyl}pyridine-3-carboxamide], the IC50 (Human plasma kallikrein) was 8110 nM and the IC50 (Human KLK1) was > 10 µM.

`CC1(C)CCCN1c1ccc(Cc2cncc(C(=O)NCc3ccc4c(N)nccc4c3)c2)cn1` [Example 65, N-[(1-Aminoisoquinolin-6-yl)methyl]-5-{[6-(2,2-dimethylpyrrolidin-1-yl)pyridin-3-yl]methyl}pyridine-3-carboxamide] was tested, and the IC50 (Human plasma kallikrein) was 131 nM and the IC50 (Human KLK1) was > 10 µM.

Work on `CCN(CC)c1cc(Cc2cncc(C(=O)NCc3ccc4c(N)nccc4c3)c2)ccn1` [Example 87, N-[(1-Aminoisoquinolin-6-yl)methyl]-5-{[2-(diethylamino)pyridin-4-yl]methyl}pyridine-3-carboxamide] yielded an IC50 (Human plasma kallikrein) of 358 nM and an IC50 (Human KLK1) of 4.98 µM.
